The target in test [1] is T1, ABCB10 (ABCB10-V5) (Mus musculus, UniProt Q9JI39).
T1 construct: full-length cDNA in pEF1alpha-V5-His (V5-His tagged), overexpressed in HEK293; detected at approx. 65 kD; assayed in sub-mitochondrial particles, then anti-V5 immunoprecipitated
T1 sequence (Q9JI39 83-715): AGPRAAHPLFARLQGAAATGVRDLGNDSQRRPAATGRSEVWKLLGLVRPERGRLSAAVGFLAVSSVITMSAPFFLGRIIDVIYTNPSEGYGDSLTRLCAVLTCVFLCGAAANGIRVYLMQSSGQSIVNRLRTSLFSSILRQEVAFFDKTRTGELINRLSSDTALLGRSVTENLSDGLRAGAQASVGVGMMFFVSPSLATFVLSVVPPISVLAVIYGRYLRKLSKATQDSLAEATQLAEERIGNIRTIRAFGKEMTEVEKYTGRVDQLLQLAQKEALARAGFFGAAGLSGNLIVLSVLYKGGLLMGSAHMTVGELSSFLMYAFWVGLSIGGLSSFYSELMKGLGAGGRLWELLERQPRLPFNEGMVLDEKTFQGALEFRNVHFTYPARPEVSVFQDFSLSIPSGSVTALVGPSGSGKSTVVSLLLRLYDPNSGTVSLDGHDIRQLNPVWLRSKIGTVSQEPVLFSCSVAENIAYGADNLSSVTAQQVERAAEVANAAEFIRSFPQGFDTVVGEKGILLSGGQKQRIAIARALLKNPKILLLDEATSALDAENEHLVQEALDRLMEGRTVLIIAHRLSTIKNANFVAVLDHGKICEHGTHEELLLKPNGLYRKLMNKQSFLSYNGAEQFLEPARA
Briefly: competition with 8-azido-ATP [γ] biotin photolabelling in SMPs, anti-V5 IP. As to conditions: 50 μM 8-azido-ATP [γ] biotin, 3 mM MgCl2, pH 7.5, on ice; nucleotide binding domain, competitive.

Test [2] deals with T1, ABCB10 (ABCB10-V5). Description: UV photolabelling of SMPs, anti-V5 IP, ExtrAvidin-HRP blot. As to conditions: 3 mM MgCl2, pH 7.5, on ice; covalent after UV irradiation; labelled compound; net of binding and hydrolysis.

For `Cc1cn([C@H]2C[C@H](O)[C@@H](COP(=O)(O)OP(=O)(O)OP(=O)(O)O)O2)c(=O)[nH]c1=O` [TTP], the “competition with 8-azido-ATP [γ] biotin photolabelling in SMPs, anti-V5 IP” value (from here on “competition with 8-azido-ATP”) in test [1] was “GTP, CTP and TTP could compete with ATP, but their effect was milder”.
For orientation: Km means the substrate concentration at which the rate is half of its maximum. For 8-azido-ATP [γ] biotin, the Michaelis-Menten constant (Km) in test [2] was 128 µM.
As for `Nc1ncnc2c1ncn2[C@@H]1O[C@H](COP(=O)(O)OP(=O)(O)OP(=O)(O)O)[C@@H](O)[C@H]1O` [ATP], the “competition with 8-azido-ATP” value in test [1] is “Increasing concentrations of unlabeled ATP decreased 8-azido-ATP [γ] biotin photolabeling”.
As to `Nc1ccn([C@@H]2O[C@H](COP(=O)(O)OP(=O)(O)OP(=O)(O)O)[C@@H](O)[C@H]2O)c(=O)n1` [CTP], in test [1], the “competition with 8-azido-ATP” value is “GTP, CTP and TTP could compete with ATP, but their effect was milder”.
With `Nc1nc2c(ncn2[C@@H]2O[C@H](COP(=O)(O)OP(=O)(O)OP(=O)(O)O)[C@@H](O)[C@H]2O)c(=O)[nH]1` [GTP], in test [1], the “competition with 8-azido-ATP” value was “GTP, CTP and TTP could compete with ATP, but their effect was milder”.

Values taken from publication PMC4459825, “ATP Binding and Hydrolysis Properties of ABCB10 and Their Regulation by Glutathione” (PLoS ONE, 2015).
